Experimental data reported in patent US20140186329A1, “POLYPHENOL ANALOGS TO TREAT ISCHEMIA” (priority 2011, published 2014).
pEC50: −log10 of the molar value. Read-outs that look alike come from different tables or passages of the source.

Legend:
PC12 cells = test: Glucose starvation; assay type: cell-based; conditions: MTT 24 hr
Protocol: FIG. 5 illustrates pharmacological effects of Baicalein on cultured cells. (A) Trophic factor withdrawal. Primary cortical neurons are prepared from 18-day-old rat embryos, and cultured at low cell density 1×10^6/35 mm dish, in serum containing medium with Baicalein (10-10,000 nM), and viability assayed 2 days later using a live-dead assay. (B) Excitotoxicity assay was done with E14 mouse primary cortical neuron cultures. After 11 days of culture, cells were exposed to 10 μM glutamate for 10 min, followed by the addition of varying concentrations of Baicalein (0.2-5 μM). Cell viability was determined 24 hr later with a standard MTT assay. (C) PC12 cells were glucose-deprived then were incubates in the absence or presence of Baicalein. Cell viability was determined 24 hr later using the MTT assay. (D) RCG-5 nerve cells were treated with 30 μM iodoacetic acid for 2 hr in the presence or absence of 5-25 μM Baicalein. In some experiments, Baicalein was added 2 hr after the ischemic event. Cell survival (%) was measured after 24 hr by the MTT assay. Baicalein added before (□) or 2 hr after ([…]) ischemia. […] When these cells are starved for glucose, there is approximately 70% maximal survival in the presence of NGF. Baicalein promotes over 80% survival (FIG. 5C).

HT22 cells = test: In vitro ischemia assay (HT22 cell IAA assay, MTT); assay type: cell-based, mouse; conditions: 20 μM IAA; for pEC50: read-out: HT22 Cell IAA assay EC50; for percent protection from IAA-induced cell death at 0.1 µM: HT-22, compound 100 nM
How it was run: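 Mouse HT22 hippocampal cells in DMEM/7.5% DFCS exposed 2 hr to 20 μM iodoacetic acid with or without derivative, then 20 hr in IAA-free medium still containing derivative. Viability by MTT (2.5 μg/ml, 4 hr, 37 °C), absorbance at 570 nm.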

[1] = test system: primary mouse cortical neurons; test: Primary cortical cell glutamate excitotoxicity assay; assay type: cell-based; conditions: 10 μM glutamate, compound 100 nM
Protocol: FIG. 5 illustrates pharmacological effects of Baicalein on cultured cells. (A) Trophic factor withdrawal. Primary cortical neurons are prepared from 18-day-old rat embryos, and cultured at low cell density 1×10^6/35 mm dish, in serum containing medium with Baicalein (10-10,000 nM), and viability assayed 2 days later using a live-dead assay. (B) Excitotoxicity assay was done with E14 mouse primary cortical neuron cultures. After 11 days of culture, cells were exposed to 10 μM glutamate for 10 min, followed by the addition of varying concentrations of Baicalein (0.2-5 μM). Cell viability was determined 24 hr later with a standard MTT assay. (C) PC12 cells were glucose-deprived then were incubates in the absence or presence of Baicalein. Cell viability was determined 24 hr later using the MTT assay. (D) RCG-5 nerve cells were treated with 30 μM iodoacetic acid for 2 hr in the presence or absence of 5-25 μM Baicalein. In some experiments, Baicalein was added 2 hr after the ischemic event. Cell survival (%) was measured after 24 hr by the MTT assay. Baicalein added before (□) or 2 hr after ([…]) ischemia.
Primary cultures of cortical neurons that die due to excitotoxicity were prepared as described previously. Briefly, BALB/c mouse embryo cortices were minced and treated with 0.1% trypsin for 20 min. After centrifugation, the cells are resuspended in 827 Neurobasal medium (Invitrogen) plus 10% fetal calf serum and are dissociated by repeated pipetting through a 1 mL blue Eppendorf pipette tip. Then the cells are plated at 1×10^5 cells per well in 96-well poly-L-lysine and laminin-coated microtiter plates (Becton Dickinson, Bedford, Mass., USA) in 827 Neurobasal plus 10% fetal calf serum and 20% glial growth-conditioned medium. Two days later the medium is aspirated and replaced by serum-free 827 Neurobasal medium plus 10 μg/mL cytosine arabinoside. The cultures are used without media change 11 days after plating and are essentially free of astrocytes. They are exposed to 10 μM glutamate followed by varying concentrations of the compounds. Cell viability is determined 24 h later using the fluorescent live/dead assay. Glial conditioned medium is prepared from confluent rat astrocyte cultures. The cells are washed twice with serum-free medium and incubated for 2 days in serum-free Neurobasal medium to produce the growth conditioned medium.
(1) ≧80% cell survival in mouse HT22 hippocampal cells in the presence of 20 μM iodoacetic acid (IAA) (in vitro ischemia model). See, Maher, et al., Brain Res. 2007, 1173:117-25. (2) ≧35% cell survival in primary mouse cortical neurons in the presence of 10 μM glutamate (in vitro excitotoxicity assay). See, Ishige, et al., Free Radic Biol Med, 2001, 30(4): p. 433-46.

Molecule | survival of glucose-starved cells (PC12 cells) | pEC50 (HT22 cells; HT22 cells) | percent protection from IAA-induced cell death at 0.1 µM (HT22 cells; Mus musculus) [%] | Primary Cortical Cell assay-Glutamate (% protection @ 100 nM) [1] [%] | pEC50 (HT22 cells; Mus musculus, HT-22, HT22 cells)
NGF: NGF, comparator in the PC12 glucose starvation assay | approximately 70% | – | – | – | –
CCc1ccc2oc(-c3ccc(O)c(O)c3)c(O)c(=O)c2c1 [PM-013, 2-(3,4-dihydroxyphenyl)-6-ethyl-3-hydroxy-4H-chromen-4-one] | – | 7.21 | 81 | 51 | –
Cc1ccc2oc(-c3ccc(O)c(O)c3)c(O)c(=O)c2c1 [PM-010, 2-(3,4-dihydroxyphenyl)-3-hydroxy-6-methyl-4H-chromen-4-one] | – | 7.34 | 89 | 65 | –
O=c1cc(-c2cc(O)c(O)c(O)c2)oc2ccccc12 [PM-008, 3′,4′,5′-trihydroxyflavone] | – | 7.38 | 88 | 100 | –
CCCc1ccc2oc(-c3ccc(O)c(O)c3)c(O)c(=O)c2c1 [PM-012, 2-(3,4-dihydroxyphenyl)-3-hydroxy-6-propyl-4H-chromen-4-one] | – | 7.21 | 80 | 82 | 7.42
